Measurements: patent US20230053540A1, “TREATMENT OF LIVER INJURY” (Massachusetts Institute of Technology, priority 2019, published 2023)

Tested on: hepatocytes
Assay: Seq-Well scRNA-Seq of hepatocytes after APAP overdose (signature scores, DEG vs untreated)
Format: in vivo, mouse
Details: A24 vs untreated (UT)

CC(=O)Nc1ccc(O)cc1 [APAP, acetaminophen]
avg_logFC Ces3a: −0.3687 | avg_logFC Ces1d: −0.4289 | avg_logFC Cfh: 0.4009 | avg_logFC Cfi: 0.2516 | avg_logFC Chchd2: −0.3949 | avg_logFC Clpx: −0.4047 | avg_logFC Cltc: 0.4381 | avg_logFC Cmah: 0.3616 | avg_logFC Cmbl: −0.3124 | avg_logFC Cml1: −0.3269 | avg_logFC Cml2: 0.2654 | avg_logFC Copa: 0.3451 | avg_logFC Cox4i1: −0.4542 | avg_logFC Cox5b: −0.3378 | avg_logFC Cox6c: −0.5028 | avg_logFC Cox7a2: −0.3635 | avg_logFC Cp: 0.3174 | avg_logFC Cpb2: 0.3222 | avg_logFC Cps1: 0.3245 | avg_logFC Creld2: 0.6087 | avg_logFC Csad: −0.5313 | avg_logFC Csde1: 0.3269 | avg_logFC Cth: −0.5109 | avg_logFC Ctsc: 0.3004 | avg_logFC Cxcl1: 0.4498 | avg_logFC Cyb5: −0.7048 | avg_logFC Cyb5r3: 0.339 | avg_logFC Cyp4a10: −0.7422 | avg_logFC Dcxr: −0.4107 | avg_logFC Ddt: −0.4224 | avg_logFC Dhcr24: 0.4238 | avg_logFC Dnajc3: 0.4564 | avg_logFC Dnajc12: 0.3221 | avg_logFC Dstn: 0.3243 | avg_logFC Ech1: −0.4291 | avg_logFC Eef1a1: 0.4393 | avg_logFC Eef2: 0.2701 | avg_logFC Efna1: 0.3361 | avg_logFC Egfr: 0.505 | avg_logFC Eif4g1: 0.3108 | avg_logFC Eif4g2: 0.466 | avg_logFC Elovl2: 0.4522 | avg_logFC Elovl3: −0.676 | avg_logFC Ephx2: −0.3693 | avg_logFC Etnk1: 0.3521 | avg_logFC Etnppl: −0.4283 | avg_logFC Fabp2: −0.3922 | avg_logFC Fdx1: −0.3447 | avg_logFC Fga: 0.8285 | avg_logFC Fgb: 0.745 | avg_logFC Fgg: 0.6805 | avg_logFC Fgl1: 0.8649 | avg_logFC Fn1: 0.6996 | avg_logFC Fndc3b: 0.3485 | avg_logFC Fos: 0.432 | avg_logFC Fxyd1: −0.3118 | avg_logFC Gadd45g: −0.614 | avg_logFC Gas5: −0.3362 | avg_logFC Gchfr: −0.3869 | avg_logFC Gjb2: 0.3911 | avg_logFC Glud1: 0.451 | avg_logFC Gm4076: −0.3255 | avg_logFC Gm5096: −0.3631 | avg_logFC Gm13775: −1.032 | avg_logFC Gm15564: 1.821 | avg_logFC Gm24270: 0.268 | avg_logFC Gm24601: 0.9844 | avg_logFC Gm26917: 0.8237 | avg_logFC Gm26924: 1.419 | avg_logFC Gnmt: −0.4604 | avg_logFC Gpx1: −0.508 | avg_logFC Grip2: 0.8779 | avg_logFC Gsta3: −0.6694 | avg_logFC Hamp: −0.8261 | avg_logFC Hao1: 0.323 | avg_logFC Hbb-bs: 1.043 | avg_logFC Hc: 0.3679 | avg_logFC Hdlbp: 0.5651 | avg_logFC Hint1: −0.4737 | avg_logFC Hint2: −0.3702 | avg_logFC Hmgcs2: −0.3173 | avg_logFC Hnf4a: 0.4549 | avg_logFC Hook1: 0.3274 | avg_logFC Hp: 0.4313 | avg_logFC Hpd: −0.3133 | avg_logFC Hs3st3b1: 0.343 | avg_logFC Hsd3b7: −0.3953 | avg_logFC Hsp90b1: 0.5342 | avg_logFC Hspa5: 0.6105 | avg_logFC Hspa8: −0.36 | avg_logFC Hspa13: 0.3548 | avg_logFC Hyou1: 0.8465 | avg_logFC Ibtk: 0.3311 | avg_logFC Igfbp1: −0.3162 | avg_logFC Igfbp2: −0.3451 | avg_logFC Iigp1: 0.4542 | avg_logFC Il6st: 0.3335 | avg_logFC Il13ra1: 0.303 | avg_logFC Inmt: −0.4435 | avg_logFC Insig1: 0.4655 | avg_logFC Ipo7: 0.2592 | avg_logFC Itih2: 0.2987 | avg_logFC Itih3: 0.4929 | avg_logFC Itih4: 0.5251 | avg_logFC Khk: −0.2976 | avg_logFC Kmo: 0.3022 | avg_logFC Kng1: 0.2658 | avg_logFC Lars2: 1.711 | avg_logFC Lman1: 0.2986 | avg_logFC Lpgat1: 0.3946 | avg_logFC Lrg1: 0.4368 | avg_logFC Lrp1: 0.5051 | avg_logFC Lrrc59: 0.3181 | avg_logFC Manf: 0.4689 | avg_logFC Mlec: 0.3246 | avg_logFC Mpc1: −0.2818 | avg_logFC Mtus1: 0.3621 | avg_logFC Mug2: 0.3704 | avg_logFC Mup3: −0.8062 | avg_logFC Mup4: −1.087 | avg_logFC Mup5: −1.371 | avg_logFC Mup6: −1.678 | avg_logFC Mup8: −0.6133 | avg_logFC Mup9: −1.847 | avg_logFC Mup11: −1.611 | avg_logFC Mup13: −0.6949 | avg_logFC Mup15: −1.235 | avg_logFC Mup16: −1.019 | avg_logFC Mup17: −1.8 | avg_logFC Mup18: −1.727 | avg_logFC Mup19: −1.699 | avg_logFC Mup20: −0.2819 | avg_logFC Mup21: −0.6977 | avg_logFC Myh9: 0.6391 | avg_logFC Nab1: 0.3342 | avg_logFC Nars: 0.3532 | avg_logFC Ndufa4: −0.4433 | avg_logFC Ndufb2: −0.3412 | avg_logFC Ndufb4: −0.3251 | avg_logFC Ndufb11: −0.4275 | avg_logFC Ndufs6: −0.3592 | avg_logFC Nedd4: 0.3774 | avg_logFC Nr1d2: 0.4306 | avg_logFC Nr5a2: 0.322 | avg_logFC Oat: −0.5212 | avg_logFC Oaz1: −0.3748 | avg_logFC Orm1: 0.3651 | avg_logFC Orm2: 0.2715 | avg_logFC P4hb: 0.4052 | avg_logFC Pdcd4: 0.4882 | avg_logFC Pdia3: 0.5938 | avg_logFC Pdia4: 0.4882 | avg_logFC Pdia6: 0.3365 | avg_logFC Pgrmc1: 0.3502 | avg_logFC Plg: 0.2617 | avg_logFC Pon1: −0.3227 | avg_logFC Prdx1: −0.2677 | avg_logFC Prg4: 0.4306 | avg_logFC Prkd3: 0.3665 | avg_logFC Pten: 0.3559 | avg_logFC Pzp: 0.416 | avg_logFC Qsox1: 0.3424 | avg_logFC Rab1: 0.3526 | avg_logFC Rdh7: −0.269 | avg_logFC Rdx: 0.3736 | avg_logFC Retsat: −0.3658 | avg_logFC Rnase4: 0.5178 | avg_logFC Rpn1: 0.4124 | avg_logFC Rps2: −0.3845 | avg_logFC Rps27l: −0.5485 | avg_logFC Rrbp1: 0.3069 | avg_logFC Rsp14: −0.2923 | avg_logFC S100a1: −0.3762 | avg_logFC Saa1: 0.5582 | avg_logFC Saa2: 0.9645 | avg_logFC Saa4: 0.3755 | avg_logFC Sar1b: −0.3176 | avg_logFC Sc5d: 0.345 | avg_logFC Scd1: 0.7267 | avg_logFC Sds: −0.407 | avg_logFC Sec61a1: 0.3139 | avg_logFC Sel1l: 0.336 | avg_logFC Selenbp2: −0.3833 | avg_logFC Sephs2: 0.89 | avg_logFC Sepp1: 0.4486 | avg_logFC Serp1: 0.3124 | avg_logFC Serpina1a: −0.6752 | avg_logFC Serpina1b: −0.3018 | avg_logFC Serpina1c: −0.4026 | avg_logFC Serpina1e: −0.2843 | avg_logFC Serpina3c: −0.4089 | avg_logFC Serpina3n: 0.4137 | avg_logFC Serpina10: 0.565 | avg_logFC Serpina1d: −0.494 | avg_logFC Slc3a1: 0.341 | avg_logFC Slc7a2: 0.3526 | avg_logFC Slc38a4: 0.2637 | avg_logFC Snord118: 0.3914 | avg_logFC Sod1: −0.3036 | avg_logFC Sparcl1: −0.2536 | avg_logFC Spcs3: 0.3942 | avg_logFC Ssr1: 0.3278
